From patent publication US11154551B2, “HDAC1,2 inhibitors and methods of using the same” (UNIVERSITY OF UTAH RESEARCH FOUNDATION, priority 2014, dated 2021) come the findings set out here.

The test system of data set [1] is SupB15 (Ph+PreB-ALL) cells. The data set is described as follows: γH2AX immunofluorescence. Conditions: 2 μM, 48 hours. Type of data set: cell-based, human. On the procedure: SupB15 cells were treated with 2 μM ACY1035, ACY1071, ACY957, or solvent (DMSO) for 48 hours. (A) Immunofluorescence with γH2AX was performed on treated SupB15 cells. The number of γH2AX foci was counted in around 100 cells for each treatment and classified into cells with no foci, 1-5, 6-10, and greater than 10 foci. (B) SupB15 cells treated with DMSO or ACY1035 for 48 hours were tested via neutral comet assay to measure the amount of double-strand breaks (DSBs), indicated by the tail.
BCR-ABL promotes DNA repair to prevent DNA damage accumulation in Philadelphia chromosome-positive (Ph+) leukemia cells. To examine the effect of various HDAC1,2-selective inhibitors on DNA repair and DNA damage response in Pre-B-ALL cells that express BCR-ABL, SupB15 (Ph+PreB-ALL) cells were treated with 2 μM ACY1035 or 2 μM ACY1071 or 2 μM ACY957 for 48 hours.

For data set [2], the system named is non-transformed, mouse bone marrow Pro-B derived Baf3 cells or cord blood stem cells. The data set is described as follows: cell death in non-transformed cells. Format: cell-based. Conditions: 2 μM, within 72 hr. The source says: Therefore, transformed lymphoma cells are more sensitive to HDAC1,2 inhibition when compared to the untransformed normal B-cells. HDAC1,2 inhibitor causes replication fork collapse in S-phase to trigger DNA damage response, and transformed cancer cells have increased DNA replication when compared to normal B cells. […] In addition to this property, EZH2^GOF DLBCL cells also have increased DNA repair compared to EZH2^WT DLBCL cells (FIG. 34A), which can also be targeted by HDAC1,2 inhibitor as it impairs the HDAC1,2 regulated DNA repair processes used by EZH2^GOF DLBCL cells for their survival.

For data set [3], the system named is glioma cell lines U-87 and U-251. The data set can be described thus: propidium iodide FACS cell cycle analysis. Format: cell-based. Conditions: 2 μM, 72 hours. The procedure:
Cells were treated with ACY957 or DMSO for 72 hours, stained with propidium iodide, and assessed by FACS. The percentage of cells in Sub-G1, G1, S, and G2-M phases were quantified for each sample.
Glioma is a type of primary brain tumor that originates in the glial cells present in the brain or spinal cord. The glioma cell lines U-87 and U-251 were treated with either DMSO or 2 μM ACY957 for 72 hours and then subjected to propidium iodide staining and FACS analysis to evaluate cell cycle progression.

Another data set relates to Karpas-422 cells. The data set can be described thus: ChIP of H3K27ac and H3K27me3 at BMF and TP63 promoters. Type of data set: cell-based, human. To be noted: 2 μM, vs DMSO. An excerpt:
RNA samples obtained from three independent treatments were subjected to RiboZero stranded sequencing using the Illumina Hiseq2000 sequencer. RNA-seq data from ACY-957-treated samples was compared to the publically available RNA seq data set from Karpas-422 cells following GSK126 treatment of Karpas-422 cells. Venn diagrams were made using the R package VennDiagram. Genes with adjusted p-value<0.05 and absolute log 2 fold change>0.585 were used in this analysis. (B): Pathway analysis of the 71 commonly up regulated genes was performed. Screen shots of the pathways that were misregulated in both ACY-957-treated Karpas-422 cells and in Karpas-422 cells following GSK-126 treatment. […] (C): Base read depth, scaled per million mapped reads, for BMF and Tp63 genes in DMSO- or ACY-957-treated Karpas-422 cells. […] Fold-increase as determined by real-time PCR analysis in H3K27ac relative to total H3 occupancy was calculated for both ACY-957-treated and DMSO-treated samples and the relative fold-enrichment of H3K27ac and […] in ACY-957-treated samples was calculated following normalization to DMSO-treated samples. The data represented an average fold-change calculated from three independent experiments+/−standard error. *p=0.003 and **p=0.004 (E): ChIP analysis of HDAC1 and HDAC2 at the promoters of BMF and Tp63 genes was performed in Karpas-422 cells. […]

`Nc1ccc(-c2cccs2)cc1NC(=O)c1ccc2nc(N3CCNCC3)ccc2c1` [ACY-957, N-(2-amino-5-(thiophen-2-yl)phenyl)-2-(piperazin-1-yl)quinoline-6-carboxamide]: the “DNA damage, quantitation of γH2AX foci” value in data set [1] is recorded as “statistically significant increase in DNA damage”. In addition, the cell death entry in data set [2] is “did not cause any cell death”. In addition, the “effect on the cell cycle” value in data set [3] is on record as “No effect on the cell cycle”. For the same compound, in the data set with Karpas-422 cells, the “H3K27ac at promoter regions of TP63 and BMF” value is “increase in H3K27ac levels at the promoter regions of both TP63 and BMF genes”; the “H3K27me3 at TP63 and BMF promoters” value is “concomitant decrease in H3K27me3 was not observed”.
